Assay results published in ChEMBL document CHEMBL1201862, “PubChem BioAssay data set” (2004).
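A five-concentration, 48-hour dose response in 96-well plates underlies each endpoint, interpolated linearly between surrounding concentrations. GI50: concentration for 50% inhibition of growth.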 The source made the active and inactive calls. Cut-off read from the data, not from the text of the source: active = GI50 up to about 1.1 µM and inactive = higher.

Tests used:
Assay in all cases: DTP human tumour cell line panel, 48 h
[1] = tested on: 786-0
[2] = tested on: A498
[3] = tested on: A549
[4] = tested on: ACHN
[5] = tested on: CAKI-1
[6] = tested on: CCRF-CEM
[7] = tested on: COLO 205
[8] = tested on: DMS-114
[9] = tested on: DMS-273
[10] = tested on: EKVX
[11] = tested on: HCC 2998
[12] = tested on: HCT-15
[13] = tested on: HL-60
[14] = tested on: HOP-18
[15] = tested on: HOP-62
[16] = tested on: HOP-92
[17] = tested on: HT-29
[18] = tested on: IGROV-1
[19] = tested on: K562
[20] = tested on: KM-20L2
[21] = tested on: KM12
[22] = tested on: LXFL 529
[23] = tested on: M14
[24] = tested on: MOLT-4
[25] = tested on: Malme-3M
[26] = tested on: NCI-H226
[27] = tested on: NCI-H23
[28] = tested on: NCI-H460
[29] = tested on: NCI-H522
[30] = tested on: OVCAR-3
[31] = tested on: OVCAR-4
[32] = tested on: OVCAR-5
[33] = tested on: OVCAR-8
[34] = tested on: RPMI-8226
[35] = tested on: RXF 393
[36] = tested on: SF-268
[37] = tested on: SF-295
[38] = tested on: SF-539
[39] = tested on: SK-MEL-28
[40] = tested on: SK-MEL-2
[41] = tested on: SK-MEL-5
[42] = tested on: SK-OV-3
[43] = tested on: SN12C
[44] = tested on: SNB-19
[45] = tested on: SNB-75
[46] = tested on: SNB-78
[47] = tested on: SW-620
[48] = tested on: TK-10
[49] = tested on: U-251
[50] = tested on: UACC-257
[51] = tested on: UACC-62
[52] = tested on: UO-31
[53] = tested on: XF498
[54] = tested on: DLD-1
[55] = tested on: HCT-116
[56] = tested on: LOX IMVI
[57] = tested on: SR

Cn1nc(N)nc1N=S(C)(C)=N
GI50 [1]: > 100 µM (inactive)
GI50 [2]: > 100 µM (inactive)
GI50 [3]: > 100 µM (inactive)
GI50 [4]: > 100 µM (inactive)
GI50 [5]: > 100 µM (inactive)
GI50 [6]: > 100 µM (inactive)
GI50 [7]: > 100 µM (inactive)
GI50 [8]: > 100 µM (inactive)
GI50 [9]: > 100 µM (inactive)
GI50 [10]: > 100 µM (inactive)
GI50 [11]: > 100 µM (inactive)
GI50 [12]: > 100 µM
GI50 [13]: > 100 µM (inactive)
GI50 [14]: > 100 µM (inactive)
GI50 [15]: > 100 µM (inactive)
GI50 [16]: > 100 µM (inactive)
GI50 [17]: > 100 µM (inactive)
GI50 [18]: > 100 µM (inactive)
GI50 [19]: > 100 µM (inactive)
GI50 [20]: > 100 µM (inactive)
GI50 [21]: > 100 µM (inactive)
GI50 [22]: > 100 µM (inactive)
GI50 [23]: > 100 µM (inactive)
GI50 [24]: > 100 µM (inactive)
GI50 [25]: > 100 µM (inactive)
GI50 [26]: 72.4 µM (inactive)
GI50 [27]: > 100 µM (inactive)
GI50 [28]: > 100 µM (inactive)
GI50 [29]: 83.9 µM (inactive)
GI50 [30]: > 100 µM (inactive)
GI50 [31]: > 100 µM (inactive)
GI50 [32]: > 100 µM (inactive)
GI50 [33]: > 100 µM (inactive)
GI50 [34]: > 100 µM (inactive)
GI50 [35]: > 100 µM (inactive)
GI50 [36]: > 100 µM (inactive)
GI50 [37]: > 100 µM (inactive)
GI50 [38]: > 100 µM (inactive)
GI50 [39]: > 100 µM (inactive)
GI50 [40]: > 100 µM (inactive)
GI50 [41]: > 100 µM (inactive)
GI50 [42]: > 100 µM (inactive)
GI50 [43]: > 100 µM (inactive)
GI50 [44]: > 100 µM (inactive)
GI50 [45]: > 100 µM (inactive)
GI50 [46]: > 100 µM (inactive)
GI50 [47]: > 100 µM (inactive)
GI50 [48]: > 100 µM (inactive)
GI50 [49]: > 100 µM (inactive)
GI50 [50]: > 100 µM (inactive)
GI50 [51]: > 100 µM (inactive)
GI50 [52]: 88.9 µM (inactive)
GI50 [53]: > 100 µM (inactive)

CC(SC1=CC(=O)c2c(Cl)ccc(O)c2C1=O)C(=O)O (configuration not stated)
GI50 [2]: 67.1 µM (inactive)
GI50 [3]: 22.4 µM (inactive)
GI50 [6]: 5.25 µM (inactive)
GI50 [7]: 21.3 µM (inactive)
GI50 [54]: 17.3 µM (inactive)
GI50 [8]: 18.2 µM (inactive)
GI50 [9]: 18.1 µM (inactive)
GI50 [10]: 21.3 µM (inactive)
GI50 [11]: 21.3 µM (inactive)
GI50 [55]: 17.8 µM (inactive)
GI50 [12]: 17.1 µM
GI50 [13]: 2.79 µM (inactive)
GI50 [14]: 27.5 µM (inactive)
GI50 [16]: 21.6 µM (inactive)
GI50 [17]: > 10 µM (inactive)
GI50 [18]: 17.3 µM (inactive)
GI50 [19]: 18.7 µM (inactive)
GI50 [20]: 74.6 µM (inactive)
GI50 [21]: 18 µM (inactive)
GI50 [56]: 10.1 µM (inactive)
GI50 [22]: 16 µM (inactive)
GI50 [24]: 18.5 µM (inactive)
GI50 [25]: 19.7 µM (inactive)
GI50 [26]: 43.3 µM (inactive)
GI50 [27]: > 10 µM (inactive)
GI50 [28]: 26.6 µM (inactive)
GI50 [33]: 18.2 µM (inactive)
GI50 [34]: 19.8 µM (inactive)
GI50 [35]: > 10 µM (inactive)
GI50 [36]: 20.2 µM (inactive)
GI50 [37]: 19 µM (inactive)
GI50 [38]: 18.3 µM (inactive)
GI50 [39]: 18.5 µM (inactive)
GI50 [40]: 17.5 µM (inactive)
GI50 [41]: 14.3 µM (inactive)
GI50 [43]: 16.7 µM (inactive)
GI50 [45]: 16.9 µM (inactive)
GI50 [46]: 12.6 µM (inactive)
GI50 [57]: 6.56 µM (inactive)
GI50 [47]: 19.4 µM (inactive)
GI50 [48]: 20.7 µM (inactive)
GI50 [49]: 17.7 µM (inactive)
GI50 [50]: 15.8 µM (inactive)
GI50 [53]: 19.9 µM (inactive)
